This is an account of results in US12163953B2, “P-phenylene ethynylene compounds as bioactive and detection agents” (STC.UNM, priority 2014, dated 2024).

Each structure is given as a SMILES string. pKd: −log10 of the molar value. Like-named read-outs stand apart in the source and are kept apart here.

The nature of series [1]: Photophysical properties of PEs alone (excitation/emission spectra, fluorescence yield). Type of series: physicochemical. As to conditions: for λem (PB): phosphate buffer; for λex (PB), high-energy band / λex (PB), low-energy band: phosphate buffer pH 7.4, 10 mM, PE 500 nM. The method, then: Excitation and emission spectra of PEs in phosphate buffer alone, with monomeric HEWL and with HEWL amyloids (8 h incubated) are shown in FIGS. 18A-H, and relevant photophysical properties are summarized in Table 1. FIGS. 18A-H illustrate excitation (A, B, C, D) and emission (right; E, F, G. H) spectra of PEs (A, E: PE1+; B, F: PE1−; C, G: PE2+; D, H: […]) alone (long dashed line) with HEWL monomers (short dashed line) and with HEWL amyloids (solid line); PE concentration: 500 nM, protein concentration: 5 μM monomer basis/0.25 mg/mL; emission and excitation wavelengths, respectively, were chosen as shown in Table 1 for each sample. A 10:1 molar ratio of protein to PE was used for these experiments. Absorbance spectra were taken, but background light scattering from insoluble amyloid aggregates made them difficult to interpret, so “fluorescence detected absorbance” in the form of excitation spectra was used instead. Normalized excitation and emission spectra, in which peak shifts and lineshape changes of spectra were somewhat easier to visualize, were used. […] PE1+ (FIG. 18E) had no change in wavelength or lineshape of emission spectrum, just a large increase in intensity when mixed with amyloids. The excitation spectra (FIGS. 18A, B, C, D) show a notable bathochromic shift for each PE in solution mixed with amyloid, of 23, 27, 35 and 29 nm for PE1+, PE2+, PE3+ and PE1−, respectively, observing only the low-energy band. The high-energy band, less relevant for imaging purposes, was also bathochromically shifted. […] PE1− had similar excitation spectrum (FIG. 18B) with monomer and amyloid, except for a large intensity difference.
For studies of fluorescence enhancement vs. protein incubation time, dyes were mixed with protein sample in phosphate buffer (10 mM, pH 7.4) at equal monomer concentration of 10 μM in the wells of a standard 96-well plate. Emission spectra were obtained using top read with a SpectraMax M2e plate-reading spectrophotometer (Molecular Devices, Sunnyvale, CA). Experiments were performed in duplicate and errors are reported as standard deviation. For analysis of bound PE excitation and emission spectra and protein-PE energy transfer, PEs (500 nM) were mixed with protein sample (5 μM, monomer basis) in phosphate buffer and the solution transferred to a quartz, fluorometry cuvette. Spectra were obtained on a PTI QuantaMaster 40 steady state spectrofluorometer (HORIBA Scientific, Edison, NJ).

The next series has as its target T1, HEWL amyloid (Gallus gallus, UniProt P00698).
T1 construct: Lyophilized HEWL was dissolved at 10 mg/mL in 10 mM pH 3 sodium citrate buffer with 0.1 M NaCl; purchased Sigma-Aldrich; host or cells: hen egg white; fibrillised in house (pH 3, 70 °C, stirred)
The series can be described thus: Binding saturation assay of PEs to HEWL amyloid (Hill fit). The arrangement: species or system hen. To be noted: for Hill coeffi.: PE binding to HEWL amyloid. The method, then: Next, binding saturation assays were conducted to quantify the affinity of PE-amyloid binding; data and fitted curves were produced and the fitted parameters are summarized in the last two columns of Table 1. Since the linear fibril binding sites could fit many PEs, fits to binding curves were performed to the Hill equation to capture possible binding cooperativity:
[formula] where x is PE concentration (with protein concentration fixed), y is PE fluorescence intensity. […] Fits to the data for the three cationic PEs produced Fmax values close to the observed saturation value, and the other two parameters are reported as calculated. […] Furthermore, the cooperativity of PE binding increased from almost no cooperativity for PE1+, to some positive cooperativity for PE2+, to still more positive cooperativity for PE3+. The quantitative physical meaning of the Hill parameter is not quite clear except in special cases, but in a general way it is possible to conclude that for the cationic PEs, the shortest PE has non-cooperative binding to HEWL amyloid (Michaelis-Menten binding), and the two longer PEs have increasingly positively cooperative binding. […] The effect of PE1− non-specific binding to HEWL monomers precluded accurate determination of a binding constant for PE1−/amyloid interactions such that a quantitative comparison of binding between the cationic and anionic compounds could not be made.
For determination of binding constant of PEs to amyloid aggregates, PEs were mixed with HEWL amyloid in phosphate buffer at a final concentration of 100 nM-5 μM for PEs and 5 μM (monomer basis) for protein. The solutions were then transferred to a quartz fluorometry cuvette and emission measured at the pertinent wavelength. Experiments were performed in duplicate and errors reported as standard deviation. Hill function fits to PE binding curves were calculated in OriginPro 9.

For the next series, the target named is T2, HEWL amyloid fibrils (Gallus gallus, UniProt P00698).
T2 construct: Lyophilized HEWL was dissolved at 10 mg/mL in 10 mM pH 3 sodium citrate buffer with 0.1 M NaCl; purchased Sigma-Aldrich; host or cells: hen egg white; fibrillised in house (pH 3, 70 °C, stirred)
Nature of the series: Induced circular dichroism of PE-amyloid complexes. The format is binding, hen. As to conditions: PEs 10 μM, HEWL 10 μM monomer basis. The method, then:
Circular dichroism measurements were performed to determine if the intrinsic chirality of the HEWL fibrils was transferred to the PE chromophore by a chiral backbone twist or an “excitonic” chiral supramolecular aggregate. CD spectroscopy (CPEs in PB with HEWL monomer and with HEWL amyloid; performed for (a): PE1+; (b): PE1−; (c): PE2+; (d): PE3+; PEs 10 μM, HEWL 10 μM monomer basis/0.5 mg/mL) indicated induced circular dichroism of PEs when bound to HEWL amyloids. As expected, no PE had optical activity by itself in phosphate buffer solution and none of the PEs had any CD with HEWL monomer, including PE1−. […] PE2+ and PE3+ gave rise to similar CD spectra, with more intense bands in the spectrum for PE3+.
PEs and protein samples were diluted in phosphate buffer, gently vortexed, and read in a 1 mm pathlength quartz CD cuvette using an Aviv 410 CD spectrometer (Aviv Biomedical, Lakewood, NJ), 15 s averaging time. A blank spectrum (PB only) was subtracted from each sample to remove background activity. Error bars are standard deviation over multiple reads of a single sample as reported by the instrument.

T1 sequence (P00698 19-147): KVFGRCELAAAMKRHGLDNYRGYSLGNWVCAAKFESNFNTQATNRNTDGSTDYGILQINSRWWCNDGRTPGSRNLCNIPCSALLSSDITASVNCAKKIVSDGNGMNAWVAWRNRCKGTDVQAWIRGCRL
T2 sequence (P00698 19-147): as above

In the case of `CCOC(=O)c1ccc(C#Cc2cc(OCC[N+](C)(C)C)c(C#Cc3ccc(C#Cc4cc(OCC[N+](C)(C)C)c(C#Cc5ccc(C#Cc6cc(OCC[N+](C)(C)C)c(C#Cc7ccc(C(=O)OCC)cc7)cc6OCC[N+](C)(C)C)cc5)cc4OCC[N+](C)(C)C)cc3)cc2OCC[N+](C)(C)C)cc1` [PE3+], in series [1], the “λem (H2O)” value came out at 440 nm, the “φfl (H2O)” value is 0.069, the “φfl (MeOH)” value came out at 0.70 and the “λem (PB)” value was 464 nm. Besides, in series [1], the “λex (PB), high-energy band” value is given as 340 nm and the “λex (PB), low-energy band” value came to 399 nm. The pKd on HEWL amyloid (HEWL amyloid, Hill fit, read-out: calculated dissociation constant) was 6.07. The same molecule had a Hill coeffi. at HEWL amyloid of 1.89. For the same molecule, the “induced circular dichroism with HEWL amyloid” value on HEWL amyloid fibrils is listed as “strong induced CD with a negative Cotton effect”.
For `CCOC(=O)c1ccc(C#Cc2cc(OCC[N+](C)(C)C)c(C#Cc3ccc(C#Cc4cc(OCC[N+](C)(C)C)c(C#Cc5ccc(C(=O)OCC)cc5)cc4OCC[N+](C)(C)C)cc3)cc2OCC[N+](C)(C)C)cc1` [PE2+], in series [1], the “λem (H2O)” value came to 448 nm, the “φfl (H2O)” value is 0.039, the “φfl (MeOH)” value was determined as 0.71 and the “λem (PB)” value is given as 460 nm. Further, in series [1], the “λex (PB), high-energy band” value was 330 nm and the “λex (PB), low-energy band” value stood at 399 nm. At HEWL amyloid, the pKd is 5.94 and the Hill coeffi. was 1.15. For the same molecule, on HEWL amyloid fibrils, the “induced circular dichroism with HEWL amyloid” value is given as “strong induced CD with a negative Cotton effect”.
